Test results taken from the supplement of paper PMC10307832.

Assays:
Experiment in all cases: relative viability (nuclei count vs DMSO), 5 days (fraction); higher = more cells survive
[1] = compound: CCCS(=O)(=O)Nc1ccc(F)c(C(=O)c2c[nH]c3ncc(-c4ccc(Cl)cc4)cc23)c1F [Vemurafenib] + CS(=O)(=O)CCNCc1ccc(-c2ccc3ncnc(Nc4ccc(OCc5cccc(F)c5)c(Cl)c4)c3c2)o1 [Lapatinib] (partner 2 µM)
Method in brief: (§1)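 Lung cancer cell lines in 1536-well plates got either a single drug or a fixed anchor-drug dose together with five library-drug doses (not always all listed) in √10 steps, by pin tool, on the day after seeding. Nuclei were counted after 5 days, and relative viability is the treated-to-vehicle ratio of nuclei counts. Values are medians of duplicate plates.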

[2] = compound: COc1cccc2cc(-c3nc([C@H]4CC[C@H](C(=O)O)CC4)n4ncnc(N)c34)[nH]c12 [OSI-027] + N=C(N)NC(=N)NCCc1ccccc1 [Phenformin] (partner 250 µM)
Method in brief: as §1

[3] = compound: COc1cccc2cc(-c3nc([C@H]4CC[C@H](C(=O)O)CC4)n4ncnc(N)c34)[nH]c12 [OSI-027] + Nc1ncn([C@H]2C[C@H](O)[C@@H](CO)O2)c(=O)n1 [Decitabine] (partner 2 µM)
Method in brief: as §1

[4] = compound: COc1cccc2cc(-c3nc([C@H]4CC[C@H](C(=O)O)CC4)n4ncnc(N)c34)[nH]c12 [OSI-027] + O=C(CCCCCCC(=O)Nc1ccccc1)NO [Vorinostat] (partner 1 µM)
Method in brief: as §1

Cell Line	relative viability ([1]; first compound 0.03162 µM)	relative viability ([1]; first compound 0.1 µM)	relative viability ([1]; first compound 0.3162 µM)	relative viability ([1]; first compound 1 µM)	relative viability ([2]; first compound 0.01 µM)	relative viability ([2]; first compound 0.03162 µM)	relative viability ([2]; first compound 0.1 µM)	relative viability ([2]; first compound 0.3162 µM)	relative viability ([2]; first compound 1 µM)	relative viability ([3]; first compound 0.01 µM)	relative viability ([3]; first compound 0.03162 µM)	relative viability ([3]; first compound 0.1 µM)	relative viability ([3]; first compound 0.3162 µM)	relative viability ([3]; first compound 1 µM)	relative viability ([4]; first compound 0.01 µM)	relative viability ([4]; first compound 0.03162 µM)	relative viability ([4]; first compound 0.1 µM)	relative viability ([4]; first compound 0.3162 µM)	relative viability ([4]; first compound 1 µM)
EBC-1	0.201	0.214	0.245	0.261															
EKVX	0.189		0.253	0.208	0.238	0.205	0.245	0.222	0.195	0.643	0.329	0.363	0.284	0.28	0.661	0.618	0.649	0.561	0.4
EMC-BAC-2	0.874	0.916	0.812	0.882	0.513	0.543	0.466	0.385	0.263	0.97	0.992	0.934	0.827	0.588	0.333	0.498	0.299	0.236	0.277
EPLC-272H	0.913	1	0.423	0.939	0.309	0.258	0.3	0.276	0.211	0.324	0.321	0.344	0.298	0.256	0.384	0.358	0.267	0.384	0.233
H3255	0.254		0.283	0.28	0.308	0.359	0.31	0.349	0.407	0.736	0.676	0.558	0.513	0.42	0.729	0.935	0.693	0.795	0.652
HARA	0.745		0.782	0.625	0.439	0.425	0.488	0.408	0.261	0.529	0.432	0.558	0.422	0.346	0.581	0.568		0.507	0.251
HCC-15	0.786	0.849	0.613	0.773	0.465	0.458	0.45	0.389	0.279	0.571	0.642	0.57	0.537	0.372	0.835	0.838	0.779	0.616	0.424
HCC-44	0.991	0.993	0.935	1.04	0.16	0.229	0.127	0.158	0.12	0.903	0.973	0.93	0.945	0.777	1.11	1.16	1.17	1.09	0.757
HCC-78	0.725	0.832	0.982	0.386	0.624	0.626	0.593	0.558	0.432	0.77	0.749	0.616	0.547	0.457	0.477	0.326	0.384	0.329	0.268
